Source: publication PMC2765639 (PLoS Neglected Tropical Diseases, 2009)
Like-named read-outs stand apart in the source and are kept apart here.

Key:
L. major promastigotes [1] = experiment: Flow cytometer-based growth inhibition and cytotoxicity assay; conditions: Leishmania major, 48 h, read-out: L. major promastigote EC50 (AVE±SD) Confirmation Flow Cytometry
[2] = tested on: L. major axenic amastigote-like population; experiment: L. major axenic amastigote-like alamar blue assay (pH 4.9); assay type: cell-based, Leishmania major; conditions: Leishmania major
human cell lines = experiment: Human cell line panel (A549, HeLa, IMR-90, PC-3, MDA-MB-231); assay type: cell-based
Experimental: Mammalian cells were cultured and maintained according to ATCC specifications (ATCC, Manassas, VA). Cell line drug susceptibility assays were performed in final volumes of 25 µL using our previously described 384-well microtiter plate format,[39]. Briefly, for automated HTS procedures, cells (A549, IMR-90 and, HeLa, 1,000 cells; PC-3, 750 cells and; MDA-MB-231, 3,000 cells) in complete culture medium were seeded into each well of 384-well microtiter plates using a Titertek MAPC-2 bulk dispenser. Test and control compounds were added to individual wells as described above. Vehicle and positive controls were 1% DMSO and 10% DMSO, respectively (final well concentrations). Assay plates were incubated for 44–46 h at 37°C in the presence of 5% CO2 and growth inhibitory effects were determined as described above. Five µL of alamar blue reagent was added to each well and incubated for 2–4 h. Data were captured as described above.

L. major promastigotes [3] = experiment: L. major promastigote drug susceptibility assay (alamar blue, 384-well); assay type: cell-based, Leishmania major; conditions: Leishmania major
Outline: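 Exponential-phase promastigotes (5,000/well) were exposed to compound for 44 h at 28°C with 5% CO2. Single-point screening used 10 µM in 1% DMSO, and duplicate 10-point curves spanned 0.01–5.00 µM.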

MDA-MB-231 = experiment: Mammalian cell line specificity assay (alamar blue); assay type: cell-based, human; conditions: Homo sapiens
Outline: (§1)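 Cells exposed to compounds for 44–46 h at 37°C, 5% CO2, in 384-well format; 1% DMSO vehicle, 10% DMSO positive control (final). Growth inhibition read after 2–4 h with alamar blue.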

PC-3 = experiment: as above; assay type: cell-based, human; conditions: Homo sapiens
Outline: as §1

A549 = experiment: as above; assay type: cell-based, human; conditions: Homo sapiens
Outline: as §1

HeLa = experiment: as above; assay type: cell-based, human; conditions: Homo sapiens, HeLa, read-out: HeLa EC50 (AVE±SD)
Outline: as §1

IMR-90 = experiment: as above; assay type: cell-based, human; conditions: Homo sapiens
Outline: as §1

With `N[C@H](C(=O)O)[C@@H]1CC(Cl)=NO1` [Acivicin, reference compound] the EC50 (L. major promastigotes [1]) was 0.04 ± 0.01 µM, the EC50 ([2]; pH 4.9, 144 h, 32°C, read-out: L. major axenic amastigote-like EC50 (AVE±SD) Confirmation Alamar Blue) was 1.1 ± 0.06 µM and the “growth inhibition of human cell lines tested” value (human cell lines) was “inhibited the growth of human cell lines tested”. The EC50 (L. major promastigotes [3]; 48 h, compounds from commercial supplier, 44 h + 4 h alamar blue, 28°C, read-out: L. major promastigote EC50 (AVE±SD) Confirmation Alamar Blue) was 0.006 ± 0.001 µM, the EC50 (L. major promastigotes [3]; Table S1, PMLSC library samples, 10-point 0.01–5.00 µM, read-out: EC50 Ave ± SD, Lm) was 0.177 ± 0.003 µM and the EC50 (MDA-MB-231; MDA-MB-231, 44–46 h, alamar blue, read-out: MDA EC50 (AVE±SD)) was > 50 µM. For the same molecule, the EC50 (PC-3; PC-3, 44–46 h, alamar blue, read-out: PC-3 EC50 (AVE±SD)) was > 50 µM, the EC50 (A549; A549, 44–46 h, alamar blue, read-out: A549 EC50 (AVE±SD)) was 4.4 ± 0.4 µM and the EC50 (A549; A549, Table S1, PMLSC library samples, read-out: EC50 Ave ± SD, A549) was > 5 µM. For the same molecule, the EC50 (HeLa; 44–46 h, alamar blue) was 3.9 ± 3 µM and the EC50 (IMR-90; IMR-90, 44–46 h, alamar blue, read-out: IMR90 EC50 (AVE±SD)) was 6.7 ± 0.4 µM.

In the case of `NC(=O)c1cn([C@@H]2O[C@H](CO)[C@@H](O)[C@H]2O)c2ncnc(N)c12` [Sangivamycin, reference compound], the EC50 (L. major promastigotes [1]) is reported as 0.14 ± 0.02 µM, the EC50 ([2]; 144 h, pH 4.9, read-out: L. major axenic amastigote-like EC50 (AVE±SD) Confirmation Alamar Blue) is reported as 4.3 ± 0.3 µM and the “growth inhibition of human cell lines tested” value (human cell lines) is reported as “inhibited the growth of human cell lines tested”. For the same molecule, the EC50 (L. major promastigotes [3]; read-out: EC50 Ave ± SD, Lm) was 0.164 ± 0.011 µM, the EC50 (MDA-MB-231; MDA-MB-231, read-out: MDA EC50 (AVE±SD)) was > 50 µM and the EC50 (PC-3; PC-3, read-out: PC-3 EC50 (AVE±SD)) was > 50 µM. For the same molecule, the EC50 (A549; A549, read-out: A549 EC50 (AVE±SD)) was 0.07 ± 0.02 µM, the EC50 (A549; A549, read-out: EC50 Ave ± SD, A549) was 0.072 ± 0.005 µM and the EC50 (HeLa) was > 50 µM. The EC50 (IMR-90; IMR-90, read-out: IMR90 EC50 (AVE±SD)) was > 50 µM.
